Experimental data taken from patent US20020061836A1, “Methods for altering SXR activation using peptide mimetic HIV protease inhibitor SXR ligands” (priority 2000, published 2002).
Where two headings read alike, the source gives them in different places.

Assays:
[1] = biological target: T1, human SXR ligand binding domain (Homo sapiens, UniProt O75469); assay: Gal-L-SXR (Gal-SXR) Gal4 reporter transient transfection assay in CV-1 cells; settings: CV-1 cells; 10 μM compound (LG268 100 nM); about 24 h
T1 sequence (O75469 107-434 limits assumed): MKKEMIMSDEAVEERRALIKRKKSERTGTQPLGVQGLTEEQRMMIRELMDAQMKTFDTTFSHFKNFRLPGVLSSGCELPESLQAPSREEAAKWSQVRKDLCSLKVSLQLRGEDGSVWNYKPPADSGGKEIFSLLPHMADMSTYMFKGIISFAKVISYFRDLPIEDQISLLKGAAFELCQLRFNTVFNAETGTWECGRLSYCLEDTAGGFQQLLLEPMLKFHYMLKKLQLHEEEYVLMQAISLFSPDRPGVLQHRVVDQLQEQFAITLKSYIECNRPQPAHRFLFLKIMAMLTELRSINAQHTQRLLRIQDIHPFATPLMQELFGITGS
From the text: Use of a standard model heterologous cell system to reconstitute SXR agonist and antagonist responsiveness allows SXR activity to be monitored in the absence of the metabolic events which may obscure the process being tested. Any suitable heterologous cell system may be used to test the activation of potential or known SXR nuclear receptor ligands, as long as the cells are capable of being transiently transfected with the appropriate DNA which expresses receptors, reporter genes, response elements, and the like. Cells which constitutively express one or more of the necessary genes may be used as well. Cell systems that are suitable for the transient expression of mammalian genes and which are amenable to maintenance in culture are well known to those skilled in the art. […] Suitable reporter gene constructs are well known to skilled workers in the fields of biochemistry and molecular biology. Activity of the reporter gene can be conveniently normalized to the internal control and the data plotted as fold activation relative to untreated cells.
(§1) The Gal4 reporter activity was normalized to the internal β-galactosidase control and the data plotted as fold activation relative to untreated cells. All transfections contained the Gal4 reporter and a β-galactosidase expression vector as an internal control.
(§2) Izbicka et al., Ann. Oncol.
Gal-PXR containing the ligand binding domain of mouse PXR (#AF031814) was obtained from Bruce Blumberg.
Transient Transffection Assays—CV-1 cells were grown and transfected as described.

[2] = system: LS180 human colon cancer cells; assay: [14C]-paclitaxel efflux from pretreated LS180 cells; format: cell-based; settings: LS180 cells induced 48 hours with 10 μM paclitaxel, 10 μM docetaxel or 100 nM LG268
Protocol: Taxane-induced drug efflux was measured using pretreated LS180 human colon cancer cells. The rate of drug efflux was measured. […] Individual data points are the means of triplicate determinations, error bars represent standard deviation and the lines are lines of regression. The slope of each line (rate of efflux) was compared to the slope obtained in the control (untreated) cells using an analysis of covariance. […] The entire experiment was performed three times with similar results. […] The cells were then incubated in media supplemented with 10 μM [^14C]-paclitaxel (4.9 μCi/umol, Moravek Biochemicals, Brea, Calif.) for 15 minutes. The uptake of ^14C-paclitaxel reached maximum levels at 10-12 minutes (data not shown). After 15 minutes, the cells were then rapidly centrifuged through silicone oil to remove all traces of extracellular radioactivity, resuspended in fresh media, and cell counts determined. At multiple time points over the next 10 minutes, triplicate aliquots of the cell suspension (approx. 1×10^5 cells/aliquot) were again centrifuged through silicon oil and the radioactivity in the cell pellet measured by quench-corrected liquid scintillation counting. The rate of [^14C]-paclitaxel efflux was determined as the slope of the [^14C]-paclitaxel versus time plots using all data. The slope for each inducer was compared to the slope obtained in the control (untreated) cells using an analysis of covariance.

[3] = biological target: T2, mouse PPARα (Mus musculus, UniProt P23204); assay: Nuclear receptor specificity transfection assay; format: cell-based
T2 construct: expressed in transfected cells; host or cells: CV-1
T2 sequence (P23204 1-468): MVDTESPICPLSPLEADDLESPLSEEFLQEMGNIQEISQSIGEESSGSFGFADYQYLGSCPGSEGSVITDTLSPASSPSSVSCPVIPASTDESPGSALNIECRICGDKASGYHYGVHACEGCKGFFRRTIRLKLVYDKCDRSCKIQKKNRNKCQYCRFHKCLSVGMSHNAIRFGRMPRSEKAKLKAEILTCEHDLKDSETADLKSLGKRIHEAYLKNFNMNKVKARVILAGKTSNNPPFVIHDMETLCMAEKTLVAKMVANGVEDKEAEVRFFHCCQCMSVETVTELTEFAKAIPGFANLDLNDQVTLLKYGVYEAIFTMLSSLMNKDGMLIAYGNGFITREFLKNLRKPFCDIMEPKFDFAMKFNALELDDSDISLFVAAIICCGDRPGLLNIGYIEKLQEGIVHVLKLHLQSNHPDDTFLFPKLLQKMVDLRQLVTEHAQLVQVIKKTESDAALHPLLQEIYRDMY

[4] = biological target: T3, mouse CARβ (Mus musculus, UniProt O35627); assay: Nuclear receptor specificity transfection assay / LXRE×3-TK-luc reporter with CARβ in CV-1 cells; format: cell-based
T3 sequence (O35627 1-358): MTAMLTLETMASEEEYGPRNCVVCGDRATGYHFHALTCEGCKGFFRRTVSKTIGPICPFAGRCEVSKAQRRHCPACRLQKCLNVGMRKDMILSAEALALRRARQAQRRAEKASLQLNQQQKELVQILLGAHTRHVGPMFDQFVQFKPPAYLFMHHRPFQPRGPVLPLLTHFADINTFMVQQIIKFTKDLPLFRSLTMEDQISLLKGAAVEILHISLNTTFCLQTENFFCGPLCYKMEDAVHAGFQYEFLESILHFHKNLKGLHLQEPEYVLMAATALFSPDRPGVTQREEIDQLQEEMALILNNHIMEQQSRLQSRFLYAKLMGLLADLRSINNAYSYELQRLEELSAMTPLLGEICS

[5] = biological target: T4, mouse PPARδ (Mus musculus, UniProt P35396); assay: Nuclear receptor specificity transfection assay; format: cell-based
T4 construct: expressed in transfected cells; host or cells: CV-1
T4 sequence (P35396 1-440): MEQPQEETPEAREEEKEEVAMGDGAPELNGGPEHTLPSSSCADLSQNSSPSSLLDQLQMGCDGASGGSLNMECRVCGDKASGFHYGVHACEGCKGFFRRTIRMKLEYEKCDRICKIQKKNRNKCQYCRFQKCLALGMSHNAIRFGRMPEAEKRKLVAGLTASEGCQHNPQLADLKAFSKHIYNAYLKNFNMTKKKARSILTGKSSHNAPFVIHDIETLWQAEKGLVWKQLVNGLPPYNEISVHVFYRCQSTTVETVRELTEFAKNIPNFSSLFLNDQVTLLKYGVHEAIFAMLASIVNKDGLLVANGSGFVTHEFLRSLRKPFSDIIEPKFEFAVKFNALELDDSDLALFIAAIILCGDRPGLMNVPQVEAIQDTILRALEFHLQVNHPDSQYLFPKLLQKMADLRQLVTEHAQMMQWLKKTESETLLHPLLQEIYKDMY

[6] = biological target: T5, human LXRα (Homo sapiens, UniProt Q13133); assay: Nuclear receptor specificity transfection assay; format: cell-based
T5 construct: expressed in transfected cells; host or cells: CV-1
T5 sequence (Q13133 1-447): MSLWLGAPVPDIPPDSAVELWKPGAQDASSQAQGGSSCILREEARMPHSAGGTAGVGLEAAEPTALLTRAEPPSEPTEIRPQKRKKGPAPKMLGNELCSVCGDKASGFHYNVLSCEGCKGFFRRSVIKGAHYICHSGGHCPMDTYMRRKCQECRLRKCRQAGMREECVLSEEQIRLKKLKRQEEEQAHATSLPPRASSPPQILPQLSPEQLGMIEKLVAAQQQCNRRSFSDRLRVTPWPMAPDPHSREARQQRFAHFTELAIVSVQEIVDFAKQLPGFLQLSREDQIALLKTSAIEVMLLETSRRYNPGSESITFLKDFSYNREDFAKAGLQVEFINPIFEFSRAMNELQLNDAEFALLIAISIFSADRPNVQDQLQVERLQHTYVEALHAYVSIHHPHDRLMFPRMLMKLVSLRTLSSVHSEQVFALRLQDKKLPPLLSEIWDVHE

[7] = biological target: T6, human RXRα ligand binding domain (Homo sapiens, UniProt P19793); assay: Gal-L-RXR Gal4 reporter transient transfection assay in CV-1 cells; format: cell-based
T6 construct: expressed in transfected cells; host or cells: CV-1
T6 sequence (P19793 203-462): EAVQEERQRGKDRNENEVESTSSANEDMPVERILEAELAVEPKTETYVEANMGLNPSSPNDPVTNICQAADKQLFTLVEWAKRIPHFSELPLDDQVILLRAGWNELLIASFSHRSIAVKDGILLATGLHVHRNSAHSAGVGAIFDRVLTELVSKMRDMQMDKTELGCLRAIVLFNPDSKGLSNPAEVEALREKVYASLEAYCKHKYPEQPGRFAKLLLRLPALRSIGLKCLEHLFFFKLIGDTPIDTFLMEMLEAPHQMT
From the text: as §1

[8] = biological target: T7, human RARα (Homo sapiens, UniProt P10276); assay: Nuclear receptor specificity transfection assay; format: cell-based; settings: 3 μM ritonavir
T7 construct: expressed in transfected cells; host or cells: CV-1
T7 sequence (P10276 whole entry): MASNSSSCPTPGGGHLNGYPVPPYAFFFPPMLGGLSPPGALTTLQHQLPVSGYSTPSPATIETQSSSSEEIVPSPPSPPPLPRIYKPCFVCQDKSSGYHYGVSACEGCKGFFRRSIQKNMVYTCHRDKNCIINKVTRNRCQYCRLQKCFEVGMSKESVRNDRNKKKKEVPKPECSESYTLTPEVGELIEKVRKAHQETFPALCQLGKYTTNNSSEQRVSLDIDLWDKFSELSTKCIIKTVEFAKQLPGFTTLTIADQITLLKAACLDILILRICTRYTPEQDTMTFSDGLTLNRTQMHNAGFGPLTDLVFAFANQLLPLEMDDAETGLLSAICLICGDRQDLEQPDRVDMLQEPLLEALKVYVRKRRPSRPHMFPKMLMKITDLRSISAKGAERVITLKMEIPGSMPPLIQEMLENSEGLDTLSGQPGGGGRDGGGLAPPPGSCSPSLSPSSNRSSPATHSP

[9] = biological target: T8, mouse PPARγ (Mus musculus, UniProt P37238); assay: Nuclear receptor specificity transfection assay; format: cell-based; settings: 3 μM ritonavir
T8 construct: expressed in transfected cells; host or cells: CV-1
T8 sequence (P37238 whole entry): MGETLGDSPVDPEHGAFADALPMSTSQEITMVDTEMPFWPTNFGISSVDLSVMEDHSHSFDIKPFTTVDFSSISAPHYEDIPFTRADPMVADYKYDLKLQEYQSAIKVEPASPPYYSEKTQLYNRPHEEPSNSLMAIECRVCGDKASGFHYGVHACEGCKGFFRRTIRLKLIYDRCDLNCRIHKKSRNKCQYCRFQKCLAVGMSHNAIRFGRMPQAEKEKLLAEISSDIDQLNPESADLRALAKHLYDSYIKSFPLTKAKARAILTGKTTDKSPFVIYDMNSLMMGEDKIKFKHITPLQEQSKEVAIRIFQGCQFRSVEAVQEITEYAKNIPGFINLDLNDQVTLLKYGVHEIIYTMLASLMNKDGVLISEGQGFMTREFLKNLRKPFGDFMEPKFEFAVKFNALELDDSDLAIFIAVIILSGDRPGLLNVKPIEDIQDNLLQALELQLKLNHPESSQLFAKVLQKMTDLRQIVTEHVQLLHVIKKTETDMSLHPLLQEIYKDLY

[10] = biological target: T9, FXR (Homo sapiens, UniProt Q96RI1); assay: Nuclear receptor specificity transfection assay; format: cell-based; settings: 3 μM ritonavir
T9 construct: expressed in transfected cells; host or cells: CV-1
T9 sequence (Q96RI1 whole entry, species assumed): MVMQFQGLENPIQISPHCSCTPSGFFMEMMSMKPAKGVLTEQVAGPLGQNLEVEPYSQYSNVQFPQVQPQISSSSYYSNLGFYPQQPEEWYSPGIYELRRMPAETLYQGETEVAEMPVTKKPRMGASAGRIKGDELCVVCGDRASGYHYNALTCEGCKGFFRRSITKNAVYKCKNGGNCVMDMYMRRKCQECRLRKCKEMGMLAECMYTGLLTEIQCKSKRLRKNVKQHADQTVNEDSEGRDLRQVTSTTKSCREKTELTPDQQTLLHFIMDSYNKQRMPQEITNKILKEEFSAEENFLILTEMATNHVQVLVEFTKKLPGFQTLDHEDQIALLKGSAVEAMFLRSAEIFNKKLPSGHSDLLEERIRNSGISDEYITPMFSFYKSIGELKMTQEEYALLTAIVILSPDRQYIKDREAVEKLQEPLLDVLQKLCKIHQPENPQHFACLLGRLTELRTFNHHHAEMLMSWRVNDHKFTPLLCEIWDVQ

[11] = system: MRP2 mRNA; assay: Northern analysis of MRP2 expression in primary human hepatocytes; format: cell-based
Protocol: (§3) Northern Blot Analysis—Primary human hepatocytes were obtained from Clonetics (Walkersville, Md.) and cultured according to the vendors instructions. Cells were treated with the indicated compounds for 24 hours and total RNA was isolated using the Trizol reagent.
After 24 hour exposure to the compounds, total RNA was prepared and analyzed by northern analysis using probes for MRP2 and the GAPDH control. […] CV-1 cells were transiently transfected with a Gal4 reporter and a vector expressing Gal4-fused to the ligand binding domain of human SXR (Gal-SXR).
(§4) After 24 hour exposure to the compounds, total RNA was prepared and analyzed by northern analysis using probes for MDR1 and the GAPDH control.

[12] = system: MDR1 mRNA; assay: Northern analysis of MDR1 expression in human LS180 cells; format: cell-based; settings: 3 μM ritonavir, 24 hour
Protocol: as §2, §3, §4

[13] = biological target: human ERα (Homo sapiens, UniProt P03372); settings: 3 μM ritonavir
Chain of human ERα (P03372 whole entry): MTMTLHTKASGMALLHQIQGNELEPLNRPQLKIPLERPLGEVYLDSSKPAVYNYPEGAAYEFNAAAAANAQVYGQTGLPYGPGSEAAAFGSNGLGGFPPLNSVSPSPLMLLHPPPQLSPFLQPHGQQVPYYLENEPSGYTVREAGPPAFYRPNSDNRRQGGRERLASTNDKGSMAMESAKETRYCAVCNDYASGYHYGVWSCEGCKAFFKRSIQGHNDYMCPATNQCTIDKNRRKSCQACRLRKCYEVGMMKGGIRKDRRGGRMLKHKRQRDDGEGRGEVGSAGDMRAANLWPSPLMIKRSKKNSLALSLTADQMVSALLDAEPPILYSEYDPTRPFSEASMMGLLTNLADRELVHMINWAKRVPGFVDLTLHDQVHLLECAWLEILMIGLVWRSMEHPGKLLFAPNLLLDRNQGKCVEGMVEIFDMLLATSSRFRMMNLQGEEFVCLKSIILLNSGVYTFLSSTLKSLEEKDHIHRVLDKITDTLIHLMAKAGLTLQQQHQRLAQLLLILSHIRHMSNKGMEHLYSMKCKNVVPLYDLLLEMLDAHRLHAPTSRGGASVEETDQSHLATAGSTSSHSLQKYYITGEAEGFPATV

[14] = system: thyroid hormone receptor β (TRβ); settings: 3 μM ritonavir

Molecule: CC(=O)O[C@H]1C(=O)[C@@]2(C)[C@H]([C@H](OC(=O)c3ccccc3)[C@]3(O)C[C@H](OC(=O)[C@H](O)[C@@H](NC(=O)c4ccccc4)c4ccc(O)cc4)C(C)=C1C3(C)C)[C@]1(OC(C)=O)CO[C@@H]1C[C@@H]2O [3′-p-hydroxypaclitaxel]
- activation of Gal-L-SXR chimeric receptor [1]: No activation

Molecule: CC(=O)O[C@H]1C(=O)[C@@]2(C)[C@H]([C@H](OC(=O)c3ccccc3)[C@]3(O)C[C@H](OC(=O)[C@H](O)[C@@H](NC(=O)c4ccccc4)c4ccccc4)C(C)=C1C3(C)C)[C@]1(OC(C)=O)CO[C@@H]1[C@@H](O)[C@@H]2O [6α-hydroxypaclitaxel]
- activation of Gal-L-SXR chimeric receptor [1]: No activation

Molecule: Cc1cc2c(cc1C1(c3ccc(C(=O)O)cn3)CC1)C(C)(C)CCC2(C)C [LG268]
- rate of [14C]-paclitaxel efflux versus untreated cells [2]: did not differ from controls

Molecule: Cc1cccc(Nc2cc(Cl)nc(SCC(=O)O)n2)c1C [Wy 14,643]
- fold activation by cognate ligand (positive control) ([3]; 5 μM): 13 fold

Molecule: C[C@@]12CCC[C@H]1[C@@H]1CC[C@H]3C[C@@H](O)CC[C@]3(C)[C@H]1CC2 [androstanol]
- fold repression by cognate ligand (positive control) ([4]; 5 μM): 50 fold
- effect on transcriptional activity of CARβ ([4]; LXRE×3-TK-luc reporter, 5 μM androstanol or 50 nM ET-743): inhibited

Molecule: CCCCC[C@H](O)/C=C/[C@@H]1[C@H]2C/C(=C/CCCC(=O)O)C[C@H]2C[C@H]1O [arbaprostacyclin]
- fold activation by cognate ligand (positive control) ([5]; 1 μM): 14 fold

Molecule: COC(=O)CC[C@@H](C)[C@H]1CC[C@H]2[C@@H]3C[C@H](O)[C@@H]4C[C@H](O)CC[C@]4(C)[C@H]3CC[C@]12C [hyodeoxycholic acid methyl ester]
- fold activation by cognate ligand (positive control) ([6]; 30 μM): 4.5 fold

Molecule: CC(C)c1nc(CN(C)C(=O)N[C@H](C(=O)N[C@@H](Cc2ccccc2)C[C@H](O)[C@H](Cc2ccccc2)NC(=O)OCc2cncs2)C(C)C)cs1 [ritonavir]
- effect on RXRα reporter activity ([7]; 3 μM ritonavir): no effect
- activation of Gal-RXR ([7]; ritonavir dose response, same doses as for SXR): failed to activate
- effect on retinoic acid receptor α reporter activity [8]: no effect
- effect on LXRα reporter activity ([6]; 3 μM ritonavir): no effect
- effect on PPARα reporter activity ([3]; 3 μM ritonavir): no effect
- effect on PPARγ reporter activity [9]: no effect
- effect on PPARδ reporter activity ([5]; 3 μM ritonavir): no effect
- effect on CARβ reporter activity ([4]; 3 μM ritonavir): no effect
- effect on FXR reporter activity [10]: no effect
- MRP2 mRNA expression ([11]; primary human hepatocytes, 3 μM ritonavir, 24 hour): activated expression
- MDR1 mRNA expression [12]: strongly induced
- effect on estrogen receptor α reporter activity [13]: no effect
- effect on thyroid hormone receptor β reporter activity [14]: no effect

Molecule: hyperforin
- MRP2 mRNA expression [11]: induced expression
